Source: publication PMC7573825 (Frontiers in Pharmacology, 2020)
Read-outs that look alike come from different tables or passages of the source.

What was measured:
most sensitive bacteria = tested on: most sensitive bacteria; parameters: method as in Bhongsatiern et al., 2015; Bruniera et al., 2015; conditions: ref Bhongsatiern et al., 2015, Bruniera et al.; cited from earlier work
[1] = parameters: method as in 3 sources, one per row (each row's own in cited_ref): ref Adane et al., 2015; Lin et al., 2016 ||| ref Ji et al., 2018 ||| ref Lin et al., 2019; conditions: ref Adane et al., 2015, Lin et al., 2016, cited from earlier work
[2] = Population pharmacokinetic modeling (NONMEM, one-compartment) of intravenous vancomycin from TDM trough plasma concentrations in kidney transplant recipients; conditions: for Typical value of V / Typical value of CL: intravenous vancomycin, 56 adult kidney transplant recipients
Method: All these patients adopted routine therapeutic drug monitoring. The transplant surgeries were performed between March 8 and June 21 in 2017. […] The glomerular filtration rate (GFR) was estimated from the sCr according to the published formula [GFR (ml min^-1): GFR = 2.104*sCr(μM) - 1.154*age - 1.154*(0.742 for female)*1.233(correction for Chinese)]
Other concomitantly used drugs, such as prednisone, mycophenolate mofetil, cyclosporine, and tacrolimus were administered orally or intravenously once or twice a day, and their usages and doses were based on clinical necessity and safety.
The venous blood was centrifuged at 1,000 g for 4 min and a volume of 100 ml supernatant plasma was mixed with 100 ml of 5% perchloric acid solution. The mixture was fully vortex blended and then centrifuged at 14,000 g for 5 min. […] AHC-C18 column (250 mm × 4.6 mm, 5 μm; ShimadzuCo., Japan), a precolumn (10 mm × 4 mm, 5 μm; ShimadzuCo.), and a PDA detector (ShimadzuCo.) were used in the workstation. The mobile phase was acetonitrile in 0.01 M KH2PO4 solution (7:93 in volume), the flow rate was 0.5 ml min^-1, the column temperature was 30°C, and the detection wavelength was 236 nm. […] After using the same parallel method for sample preparation as mentioned above, the standard samples were simultaneously injected with the samples for testing.
Data processing and pharmacokinetic analysis were carried out with the nonlinear mixed-effects model program (NONMEM®, Version 7.4; Icon Inc, PA, USA), compiled with GFortran (Version 4.9.2; http://www.gfortran.org). The output was explored by the R package (Version 3.3.1; http://www.r-project.org) and Xpose (Version 4.5.3; http://xpose.sourceforge.net). The first-order conditional estimation method with η-ε interaction (FOCE-I) was used throughout the model-building procedure.
First, we established the base compartment model. For the statistical modeling, exponential model was used as the inter-individual variation model:
For the residual variation modeling, additive, proportional, and mixed models were applied. The additive and proportional mixed model is as follows:
In the forward model building step, the covariates were assessed for their suitability depending on the changes in the objective function values (OFV) and the inter-individual variations and residual variations. Taking an example with df = 1, when the decrease of OFV is more than 3.84 (P < 0.05, df = 1), the introduced factor can be considered as a significant covariate for the parameter model. During the backward analysis, a covariate was removed from the model every time, except when the OFV value increased by more than 6.63 units (P < 0.01, df = 1).
For the effects of continuous variables on pharmacokinetic parameters, linear, exponential, and power function models were used. The linear function model was:

Compound: CN[C@H](CC(C)C)C(=O)N[C@H]1C(=O)N[C@@H](CC(N)=O)C(=O)N[C@H]2C(=O)N[C@H]3C(=O)N[C@H](C(=O)N[C@H](C(=O)O)c4cc(O)cc(O)c4-c4cc3ccc4O)[C@H](O)c3ccc(c(Cl)c3)Oc3cc2cc(c3O[C@@H]2O[C@H](CO)[C@@H](O)[C@H](O)[C@H]2O[C@H]2C[C@](C)(N)[C@H](O)[C@H](C)O2)Oc2ccc(cc2Cl)[C@H]1O [vancomycin]
- minimum inhibitory concentration (MIC) (most sensitive bacteria): 0.1 to 2 µg/mL
- Vancomycin clearance ([1]; adult Chinese patients with post-craniotomy meningitis, typical creatinine clearance rate 104.7 ml/min): 7.56 L/h
- Vancomycin clearance ([1]; patients with augmented renal clearance): 8.52 L/h
- Typical value of V ([2]; base model, one-compartment, 195 plasma Cmin): 45.5 L
- Typical value of CL ([2]; base model, one-compartment, 195 plasma Cmin, HPLC, FOCE-I): 1.84 L/h
- Typical value of CL ([2]; final model, CL=2.08×[(WT/59.95)^1.07]×[(GFR/36.67)^0.698], 195 plasma Cmin): 2.08 L/h
- Typical value of V ([2]; final model, V=63.2×[(WT/59.95)^0.934]): 63.2 L
- Influential factor for WT on V (θ3) ([2]; final model, power function exponent): 0.934
